Patent US20140357560A1, “PTH-CONTAINING THERAPEUTIC/PROPHYLACTIC AGENT FOR OSTEOPOROSIS, CHARACTERIZED IN THAT PTH IS ADMINISTERED ONCE A WEEK IN A UNIT DOSE OF 100 TO 200 UNITS” (ASAHI KASEI PHARMA CORPORATION, priority 2009, published 2014)
Counter-ions that a name gives are not always drawn. Values belong to the compound of their own block, whether it stands above or below them.

Tests used:
[1] = test system: nausea and vomiting associated with administration of the test drug; assay: Working Example 2: drugs to treat nausea and vomiting associated with the test drug; conditions: for efficacy against nausea and vomiting associated with the test drug (summary): summary of Table 18
Description: The administration period and efficacy of various drugs to treat nausea and vomiting associated with administration of the test drug were studied.

[2] = test system: osteoporosis patients having normal renal function, mild or moderate renal dysfunction; conditions: in vivo
[3] = in vivo
Description: The ratio of the urinary calcium value/urinary creatine value was compared before beginning administration and in the weeks of observation. The urinary calcium was measured at the start, after 12 weeks, after 24 weeks, after 48 weeks, and after 72 weeks.

[4] = Working Example 1: serum calcium concentration / hypercalcemia; type: in vivo, human
Description: Both the 5 and 100 unit groups were administered two tablets of a calcium agent (containing 500 mg of precipitated calcium carbonate [200 mg as calcium] per tablet) once a day.

[5] = in vivo; remark: listed apart in the source
Description: The serum calcium was measured at the start, after 12 weeks, after 24 weeks, after 48 weeks, and after 72 weeks. Serum calcium standard value: 8.4 to 10.4 mg/dL. The standard concomitant drug (610 mg of calcium, 400 IU of vitamin D3, and 30 mg of magnesium) was taken once a day after dinner from the time of consent to the end of the trial.

[6] = 20 μg/day; blood samples 4 to 6 hours after administration; Non-patent Reference 1; cited from earlier work
[7] = conventional daily administration; moderate renal dysfunction; Non-patent Reference 32; cited from earlier work

Compound: CCOc1cc(N)c(Cl)cc1C(=O)NCC1CN(Cc2ccc(F)cc2)CCO1 (stereo not shown) [Gasmotin, mosapride citrate]
efficacy against nausea and vomiting associated with the test drug (summary) [1]: effective

Compound: NC(N)=Nc1nc(CSCCC(N)=NS(N)(=O)=O)cs1 [Gaster D, famotidine]
Effective or ineffective ([1]; Event: Nausea, before or after test drug: Unknown): Effective | efficacy against nausea and vomiting associated with the test drug (summary) [1]: effective

Compound: O=c1[nH]c2ccccc2n1CCCN1CCC(n2c(=O)[nH]c3cc(Cl)ccc32)CC1 [Nauzelin, domperidone]
Effective or ineffective ([1]; Event: Nausea, given Before test drug, taken after breakfast, lunch, and dinner): Effective | Effective or ineffective ([1]; Event: Vomiting, given Before test drug, taken after breakfast, lunch, and dinner): Effective | efficacy against nausea and vomiting associated with the test drug (summary) [1]: effective

Compound: CN1CCN(CCCN2c3ccccc3Sc3ccc(Cl)cc32)CC1.O=C(O)/C=C\C(=O)O.O=C(O)/C=C\C(=O)O [Novamine]
Effective or ineffective ([1]; Event: Nausea, given Before test drug): Ineffective

Compound: CCN(CC)CCNC(=O)c1cc(Cl)c(N)cc1OC [Primperan, metoclopramide]
Effective or ineffective ([1]; Event: Nausea, given Before test drug, listed as Primperan tablet): Ineffective | efficacy against nausea and vomiting associated with the test drug (summary) [1]: effective

Compound: Cc1c(OCC(F)(F)F)ccnc1C[S+]([O-])c1nc2ccccc2[nH]1 (stereo not shown) [Takepron OD, lansoprazole]
efficacy against nausea and vomiting associated with the test drug (summary) [1]: effective

median percentage change in the urinary calcium value [3]: −14.7% | hypercalcemia ([4]; once a week, either dose (5 or 100 units), during the administration period): did not cause hypercalcemia | corrected serum calcium value after administration, maximum [5]: 11.6 mg/dL | corrected serum calcium value after administration, minimum [5]: 8.5 mg/dL | corrected serum calcium value, range of the average [5]: 9.3 to 9.6 mg/dL
Compound: CC[C@H](C)[C@H](NC(=O)[C@H](CCC(=O)O)NC(=O)[C@H](CO)NC(=O)[C@@H](NC(=O)[C@@H](N)CO)C(C)C)C(=O)N[C@@H](CCC(N)=O)C(=O)N[C@@H](CC(C)C)C(=O)N[C@@H](CCSC)C(=O)N[C@@H](Cc1cnc[nH]1)C(=O)N[C@@H](CC(N)=O)C(=O)N[C@@H](CC(C)C)C(=O)NCC(=O)N[C@@H](CCCCN)C(=O)N[C@@H](Cc1cnc[nH]1)C(=O)N[C@@H](CC(C)C)C(=O)N[C@@H](CC(N)=O)C(=O)N[C@@H](CO)C(=O)N[C@@H](CCSC)C(=O)N[C@@H](CCC(=O)O)C(=O)N[C@@H](CCCN=C(N)N)C(=O)N[C@H](C(=O)N[C@@H](CCC(=O)O)C(=O)N[C@@H](Cc1c[nH]c2ccccc12)C(=O)N[C@@H](CC(C)C)C(=O)N[C@@H](CCCN=C(N)N)C(=O)N[C@@H](CCCCN)C(=O)N[C@@H](CCCCN)C(=O)N[C@@H](CC(C)C)C(=O)N[C@@H](CCC(N)=O)C(=O)N[C@@H](CC(=O)O)C(=O)N[C@H](C(=O)N[C@@H](Cc1cnc[nH]1)C(=O)N[C@@H](CC(N)=O)C(=O)N[C@@H](Cc1ccccc1)C(=O)O)C(C)C)C(C)C [teriparatide acetate]
incidence of side effects relative to the control [2]: about twice that of the control | changes in the serum calcium concentration ([4]; 5 or 100 units once a week, high-risk and low-risk patients): no tendency for the serum calcium to rise was seen | corrected serum calcium, test drug groups versus control group [5]: No significant differences could be found | manifestation of hypercalcemia or hypercalciuria [5]: No manifestation of hypercalcemia or hypercalciuria was found

Compound: PTH: parathyroid hormone preparation given daily (20 μg/day) in cited trials, conventional daily administration
patients with hypercalcemia [6]: 11% | patients with persistent hypercalcemia [6]: 3% | osteoporosis patients with serum calcium exceeding 11.0 mg/mL after administration [7]: 11.76%
